The target of data set [1] is rat mGluR3 (Rattus norvegicus, UniProt P31422). The experiment in a line: thallium flux assay, mGluR3 GIRK HEK-293 cells. The class given is cell-based. Particulars: in presence of EC20 glutamate.
Data set [2] has as its system Wistar rats. As to the kind of experiment: food-maintained responding. Conditions: food-restricted rats, 1 h session.
Data set [3] can be described thus: brain and plasma levels 1 h after administration. The format is in vivo. Conditions: rat, geometric mean (lower – upper limits).
The nature of data set [4]: plasma pharmacokinetics after i.p. administration. Particulars: rat, mean ± SD. The class given is in vivo.
The test system of data set [5] is Wistar rats. The experiment in a line: intracranial self-stimulation. The format is in vivo, rat.
The subject of data set [6] is Wistar rats. The experiment in a line: intravenous cocaine self-administration, short. Particulars: for inactive lever presses: cocaine self-administration; for cocaine self-administration (infusions earned, % of baseline): 30 min pretreatment, vs vehicle.
Data set [7] deals with Wistar rats. The experiment in a line: cue-induced reinstatement of food-seeking behavior. Conditions: food-responding rats; 10, 20, 40 mg/kg i.p., between-subjects.
Data set [8] deals with Wistar rats. As to the kind of experiment: cue-induced reinstatement of cocaine-seeking behavior.
The test system of data set [9] is ShA rats. Particulars: 3 mg/kg, ref Baptista et al 2004; cited from earlier work.

Each structure is given as a SMILES string. Counter-ions that a name gives are not always drawn.

rat mGluR3, sequence (P31422 23-879): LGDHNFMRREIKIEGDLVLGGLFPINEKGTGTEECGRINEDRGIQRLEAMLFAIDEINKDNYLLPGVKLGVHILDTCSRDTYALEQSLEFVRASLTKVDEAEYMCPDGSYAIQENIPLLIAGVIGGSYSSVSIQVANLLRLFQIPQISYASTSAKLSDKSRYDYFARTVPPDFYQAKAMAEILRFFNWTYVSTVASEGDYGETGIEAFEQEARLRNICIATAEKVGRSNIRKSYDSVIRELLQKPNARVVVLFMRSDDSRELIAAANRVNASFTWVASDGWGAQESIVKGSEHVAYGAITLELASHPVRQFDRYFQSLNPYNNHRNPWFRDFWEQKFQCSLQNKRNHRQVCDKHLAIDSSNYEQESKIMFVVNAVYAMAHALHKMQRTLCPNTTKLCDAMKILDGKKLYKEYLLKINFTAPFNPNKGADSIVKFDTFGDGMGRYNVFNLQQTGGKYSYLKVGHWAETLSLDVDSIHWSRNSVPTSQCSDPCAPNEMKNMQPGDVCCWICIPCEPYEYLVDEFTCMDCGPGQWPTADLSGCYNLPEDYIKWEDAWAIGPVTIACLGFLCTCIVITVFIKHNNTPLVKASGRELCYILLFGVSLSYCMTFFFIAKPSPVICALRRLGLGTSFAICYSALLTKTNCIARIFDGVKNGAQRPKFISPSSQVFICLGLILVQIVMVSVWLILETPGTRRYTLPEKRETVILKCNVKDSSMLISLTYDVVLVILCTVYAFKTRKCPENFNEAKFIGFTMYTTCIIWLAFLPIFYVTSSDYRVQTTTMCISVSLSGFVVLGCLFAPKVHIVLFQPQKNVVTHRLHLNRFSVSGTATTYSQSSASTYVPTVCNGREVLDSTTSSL

Take `Cc1c(OCc2cccc(-c3ccc(C(=O)[O-])cc3)c2)cc2c(c1C)C(=O)C(C1CCCC1)C2.[K+]` (centres unmarked) [BINA, potassium 3′-([2-cyclopentyl-6-7-dimethyl-1-oxo-2,3-dihydro-1H-inden-5yloxy]methyl)biphenyll-4-carboxylate]: the “potentiation of the glutamate EC20 response” value in data set [1] was “inactive”. The food-maintained responding result in data set [2] (10, 20, 40 mg/kg i.p.) is reported as “no effect on food responding”. Moreover, in data set [3] (20 mg/kg), the “Brain level (mean)” value is 2.78 (0.65 – 6.39) μM and the “Plasma level (mean)” value was 10.54 (0.79 – 25.48) μM. In data set [3] (40 mg/kg), the “Brain level (mean)” value was 2.30 (0.62 – 5.54) μM and the “Plasma level (mean)” value is recorded as 7.79 (0.81 – 16.98) μM. Moreover, in [4] (20 mg/kg i.p.), the AUC came to 31 ± 5.0 h μM/L, the concentration peaked (Cmax) at 9.3 ± 2.7 µM and the Vd worked out at 5.9 ± 2.6 L/kg. Besides, in data set [4] (40 mg/kg i.p.), the AUC is recorded as 114 ± 42 h μM/L, the Cmax was found to be 31 ± 14 µM and the Vd is on record as 1.7 ± 0.68 L/kg. Besides, the “cocaine-induced decrease in ICSS response latencies” value in data set [5] (20 mg/kg i.p. combined with cocaine 10 mg/kg i.p.) was “reversed the cocaine-induced decrease in response latencies”. The ICSS response latencies entry in [5] (40 mg/kg i.p. vs vehicle) is “significantly increased”. For the same molecule, the “cocaine-induced ICSS threshold lowering” value in data set [5] (20 and 40 mg/kg i.p. combined with cocaine 10 mg/kg i.p.) is “attenuated cocaine-induced threshold lowering”. Besides, in data set [5] (administered alone, 20 and 40 mg/kg i.p.), the ICSS reward thresholds result is listed as “significantly elevated reward thresholds”. The inactive lever presses result in data set [6] (10, 20, 40 mg/kg i.p.) was “no effect on inactive lever presses”. In addition, the “cue-induced food seeking (active lever presses)” value in [7] was “no effect on the number of active lever presses”. In data set [8] (non-reinstated sub-groups of ShA and LgA rats (median split), 10-40 mg/kg i.p.), the “active lever presses in reinstatement sessions” value was “no effect of BINA treatment”. Further, the “cue-induced reinstatement of cocaine-seeking behavior” value in [8] (three ShA rats reinstating by predefined criterion) is “tended to reduce cue-induced reinstatement”.

For `COC(=O)[C@H]1[C@@H](OC(=O)c2ccccc2)C[C@@H]2CC[C@H]1N2C` [Cocaine, Cocaine hydrochloride, reference compound], the ICSS reward thresholds entry in [5] (10 mg/kg i.p., co-administered with vehicle or 10 mg/kg BINA) is “significantly lowered ICSS thresholds”.

With `N[C@@]1(C(=O)O)CO[C@H]2[C@H](C(=O)O)[C@H]21` [LY379268, [−]-2-oxa-4-aminobicyclo[3.1.0]hexane-4,6-dicarboxylate], in data set [9], the cocaine self-administration result is reported as “decreased cocaine self-administration”. Moreover, the food-maintained responding entry in data set [2] (6 mg/kg) was “significantly decreased food responding”. Further, the “cocaine self-administration (infusions earned, % of baseline)” value in data set [6] (LgA rats, 6 h session and first hour, 6 mg/kg) is recorded as “significant decrease in cocaine intake”; in data set [6] (ShA rats, 1 h session, 3 and 6 mg/kg), “significant decrease in cocaine intake”. Also, the inactive lever presses entry in [6] (0.3, 1, 3, 6 mg/kg) was “no effect on inactive lever presses”.

The Cmax is the maximum level reached in the sampled fluid or tissue.

(Values after PMC2922422 (Neuropsychopharmacology : official publication of the …, 2010).)
